Data on 16 molecules can be found in patent US20240059680A1, “N-(2,3-DIHYDRO-1,4-BENZOXAZIN-4-YL)-3-ISOPROPYL-7-(2,3,5-TRIFLUOROPHENYL)BENZO-THIOPHENE-2-CARBOXAMIDE DERIVATIVES AND SIMILAR COMPOUNDS FOR THE TREATMENT OF HEARTWORM INFECTIONS” (ELANCO TIERGESUNDHEIT AG, priority 2020, published 2024).

Values after ≈ are worked out from the molar mass of the structure shown.

The test system of assay [1] is Dirofilaria immitis microfilariae. Description: In Vitro Assay 3: Dirofilaria immitis microfilariae (DIROIM L1) motility. The class given is cell-based. The settings on record: 72 h.
The next assay concerns the target D. immitis Slo-1 (Dirofilaria immitis, UniProt I0DFK5). Put plainly: In Vitro Assay 2: D. immitis Slo-1, membrane potential measurement in recombinant CHO cell line. The class given is cell-based.
A further assay concerns the target C. elegans Slo-1a (Caenorhabditis elegans, UniProt Q95V25).
Assay [2] concerns Dirofilaria immitis third-stage larvae. Put plainly: In Vitro Assay 4: Dirofilaria immitis (DIROIM L4) larval motility. Type of assay: cell-based. The settings on record: 72 h.
Assay [3] deals with Adult Nippostrongylus brasiliensis. Put plainly: In Vitro Assay 5: Nippostrongylus brasiliensis (NIPOBR), acetylcholine esterase readout. The conditions noted are these: acetylcholine esterase activity in medium vs negative control, adult worms, read-out: EC50. The class given is cell-based. As to the method: In Vitro Assay 5: Nippostrongylus Brasiliensis (NIPOBR)
Adult Nippostrongylus brasiliensis were washed with saline buffer containing 100 U/ml penicillin, 0.1 mg/ml streptomycin and 2.5 μg/ml amphotericin B. Test compounds were dissolved in DMSO and worms were incubated in medium in a final concentration of 10 μg/ml (10 ppm), 1 μg/ml (1 ppm) and 0.1 μg/ml (0.1 ppm) respectively. An aliquot of the medium was used to determine the acetylcholine esterase activity in comparison to a negative control. The principle of measuring acetylcholine esterase as readout for anthelmintic activity was described in Rapson et al (1986) and Rapson et al (1987).
Based on the evaluation of a wide concentration range, concentration-response curves as well as EC50-values were calculated.

Chain of C. elegans Slo-1a (Q95V25 whole entry): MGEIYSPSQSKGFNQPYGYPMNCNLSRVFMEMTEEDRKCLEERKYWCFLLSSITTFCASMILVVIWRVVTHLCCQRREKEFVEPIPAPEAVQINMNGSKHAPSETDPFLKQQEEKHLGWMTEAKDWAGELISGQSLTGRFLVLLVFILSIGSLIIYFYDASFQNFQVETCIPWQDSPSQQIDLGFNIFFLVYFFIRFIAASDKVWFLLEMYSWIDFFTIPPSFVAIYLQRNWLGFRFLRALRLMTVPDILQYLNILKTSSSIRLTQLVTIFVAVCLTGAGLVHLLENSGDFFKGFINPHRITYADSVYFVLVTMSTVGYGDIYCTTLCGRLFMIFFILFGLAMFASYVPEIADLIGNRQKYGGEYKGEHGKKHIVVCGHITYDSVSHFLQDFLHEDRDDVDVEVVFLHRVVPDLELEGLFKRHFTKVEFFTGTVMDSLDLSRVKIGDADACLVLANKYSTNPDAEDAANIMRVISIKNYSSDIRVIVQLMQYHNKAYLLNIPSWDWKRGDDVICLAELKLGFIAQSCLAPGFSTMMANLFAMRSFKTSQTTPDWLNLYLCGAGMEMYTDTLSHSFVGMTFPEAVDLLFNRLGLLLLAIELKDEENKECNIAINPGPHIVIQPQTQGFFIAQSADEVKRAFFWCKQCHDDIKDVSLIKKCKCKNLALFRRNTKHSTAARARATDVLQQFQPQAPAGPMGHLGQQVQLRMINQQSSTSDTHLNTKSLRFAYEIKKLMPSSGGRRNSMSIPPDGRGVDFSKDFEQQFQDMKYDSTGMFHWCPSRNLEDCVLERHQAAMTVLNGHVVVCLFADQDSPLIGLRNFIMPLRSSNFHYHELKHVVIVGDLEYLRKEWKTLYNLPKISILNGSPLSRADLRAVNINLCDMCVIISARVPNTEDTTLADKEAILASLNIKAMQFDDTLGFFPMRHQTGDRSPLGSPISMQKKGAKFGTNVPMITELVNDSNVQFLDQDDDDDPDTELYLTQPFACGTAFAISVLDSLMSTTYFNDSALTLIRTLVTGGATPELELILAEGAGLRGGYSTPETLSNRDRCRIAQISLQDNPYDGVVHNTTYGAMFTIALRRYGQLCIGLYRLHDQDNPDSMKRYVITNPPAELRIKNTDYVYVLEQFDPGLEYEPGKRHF
Chain of D. immitis Slo-1 (I0DFK5 1-1119): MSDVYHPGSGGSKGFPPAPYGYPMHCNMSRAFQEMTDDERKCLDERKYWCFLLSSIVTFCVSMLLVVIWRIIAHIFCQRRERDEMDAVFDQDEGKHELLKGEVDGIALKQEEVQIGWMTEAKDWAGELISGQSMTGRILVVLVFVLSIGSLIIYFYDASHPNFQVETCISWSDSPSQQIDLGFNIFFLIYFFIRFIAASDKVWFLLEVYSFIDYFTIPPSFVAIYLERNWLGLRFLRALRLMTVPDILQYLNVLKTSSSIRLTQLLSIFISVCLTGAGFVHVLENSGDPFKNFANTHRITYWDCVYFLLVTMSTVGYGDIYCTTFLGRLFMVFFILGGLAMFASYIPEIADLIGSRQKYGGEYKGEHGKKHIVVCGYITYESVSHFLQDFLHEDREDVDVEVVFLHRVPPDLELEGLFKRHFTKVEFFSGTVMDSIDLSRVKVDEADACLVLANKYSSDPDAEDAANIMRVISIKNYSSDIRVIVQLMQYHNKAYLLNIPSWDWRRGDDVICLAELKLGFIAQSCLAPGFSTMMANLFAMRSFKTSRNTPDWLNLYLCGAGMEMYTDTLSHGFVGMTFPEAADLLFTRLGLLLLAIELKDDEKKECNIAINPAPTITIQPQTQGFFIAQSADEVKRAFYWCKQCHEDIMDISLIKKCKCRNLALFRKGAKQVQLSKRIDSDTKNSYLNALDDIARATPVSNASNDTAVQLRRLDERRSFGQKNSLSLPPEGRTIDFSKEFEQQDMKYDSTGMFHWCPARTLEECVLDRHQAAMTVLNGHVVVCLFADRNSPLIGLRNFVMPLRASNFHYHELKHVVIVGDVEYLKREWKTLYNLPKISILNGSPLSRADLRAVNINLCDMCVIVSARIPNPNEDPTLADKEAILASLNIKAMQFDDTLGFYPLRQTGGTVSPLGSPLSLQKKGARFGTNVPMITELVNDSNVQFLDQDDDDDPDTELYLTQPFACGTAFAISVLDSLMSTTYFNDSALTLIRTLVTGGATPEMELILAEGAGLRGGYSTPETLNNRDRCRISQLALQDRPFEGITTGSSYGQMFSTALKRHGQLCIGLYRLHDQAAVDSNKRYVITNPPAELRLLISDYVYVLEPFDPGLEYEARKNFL
Method for C. elegans Slo-1a: For transfection with plasmid DNA to express C. elegans Slo-1a (accession number AAL28102) CHO cells were passaged to 40% confluence before adding the transfection solution to the cell culture. The transfection solution included 300 μL OptiMEM (Life Technologies, Nr.: 31985), 2 μL (=6 μg) of plasmid DNA containing the C. elegans Slo-1a gene and 9 μL FugeneHD (Promega, Nr.: E2311), and was added to the cells prior to incubation for 48 hours at 37° C., 5% CO2. The transfection medium was exchanged for the selection medium which contains additional G418 (2 mg/ml, Invitrogen, Nr.: 10131) and the cells were seeded into 384 well plates (300 cells/well). After a few weeks, the remaining surviving cells were tested with a voltage sensitive dye (Membrane Potential Assay Kit, Molecular Devices Nr.: R8034) for K+ channel expression. Positive cell clones were purified by the limited dilution technique. For this the clone with the highest and most robust signal in the voltage sensitive dye assay was further subcloned (incubated) in 384 well plates (0.7 cells/well) to obtain clonal purity. This generated a final stable CHO cell line expressing the C. elegans Slo-1a.
Cell culture conditions Cells were cultured at 37° C. and 5% CO2 in MEMalpha with Gutamax I (Invitrogen, Nr.: 32571), supplemented with 10% (v/v) heat inactivated fetal bovine serum (Invitrogen, Nr.: 10500), G418 (1 mg/ml, Invitrogen, Nr.: 10131). Cells were detached using Accutase (Sigma, Nr.: A6964).
Membrane Potential Measurements
Laboratory compound testing was performed on 384-well microtiter plates (MTPs, Greiner, Nr.: 781092). 8000 cells/well were plated onto 384-well MTPs and cultured for 20 to 24 hours at 37° C. and 5% CO2. After removal of the cell culture medium, the cells were washed once with tyrode (150 mM NaCl, 0.3 mM KCl, 2 mM CaCl2, 1 m M MgCl2, 0.8 mM NaH2PO4, 5 mM Glucose, 28 mM Hepes, pH 7.4) and then loaded with the voltage sensitive dye of the Membrane Potential Assay Kit diluted in tyrode for 1 h at room temperature. After starting the measurement of fluorescence using a FLIPR Tetra (Molecular Devices, Exc. 510-545 nm, Emm. 565-625 nm), test compounds were added followed by the addition of KCl tyrode (final assay concentration: 70 mM KCl, 2 mM CaCl2, 1 mM MgCl2, 0.8 mM NaH2PO4, 5 mM Glucose, 28 mM Hepes, pH 7.4, including the voltage sensitive dye). The measurement was completed after 7 minutes.
EC50 values were calculated using a four-parameter plotting by the Scilligence ELN/Regmol Software Tool, Bioassay.

Broadly, the EC50 is the midpoint of the concentration-response curve. With `O=C(NN1CCOc2ccccc21)c1sc2c(-c3cc(F)cc(F)c3F)c(F)cnc2c1N1CCOCC1` [Example 6.4, N-(2,3-Dihydro-4H-benzo[b][1,4]oxazin-4-yl)-6-fluoro-3-morpholino-7-(2,3,5-trifluorophenyl)thieno[3,2-b]pyridine-2-carboxamide], the EC50 is under 0.1 µg/mL in assay [1]; 100 to 1000 nM on D. immitis Slo-1; under 100 nM on C. elegans Slo-1a; under 0.1 µg/mL in assay [2]; 0.1 to 1 µg/mL (≈ 0.184 to 1.84 µM) in assay [3].
For the molecule `CC(C)(O)c1c(C(=O)NN2CCOc3ccccc32)sc2c(-c3cc(F)cc(F)c3F)ccnc12` [Example 6.5, N-(2,3-Dihydro-4H-benzo[b][1,4]oxazin-4-yl)-3-(2-hydroxypropan-2-yl)-7-(2,3,5-trifluorophenyl)thieno[3,2-b]pyridine-2-carboxamide], the EC50 is under 0.1 µg/mL in assay [1]; under 100 nM at D. immitis Slo-1; under 100 nM at C. elegans Slo-1a; under 0.1 µg/mL in assay [2]; 0.1 to 1 µg/mL (≈ 0.2 to 2 µM) in assay [3].
As for `O=C(NN1CCOc2ccccc21)c1sc2c(-c3cc(F)cc(F)c3F)ccnc2c1N1CC(F)C1` [Example 6.6, N-(2,3-dihydro-4H-benzo[b][1,4]oxazin-4-yl)-3-(3-fluoroazetidin-1-yl)-7-(2,3,5-trifluorophenyl)thieno[3,2-b]pyridine-2-carboxamide], the EC50 in assay [1] was under 0.1 µg/mL; on D. immitis Slo-1, over 1000 nM; at C. elegans Slo-1a, 100 to 1000 nM; in assay [2], 0.1 to 1 µg/mL (≈ 0.194 to 1.94 µM); in assay [3] it was over 1 µg/mL.
Regarding `O=C(NN1CCOc2ccccc21)c1sc2c(-c3cc(F)cc(F)c3F)ccnc2c1N1CCOCC1` [Example 6.8, N-(2,3-Dihydro-4H-benzo[b][1,4]oxazin-4-yl)-3-morpholino-7-(2,3,5-trifluoro-phenyl)thieno[3,2-b]pyridine-2-carboxamide], the half-maximal effective concentration (EC50) in assay [1] was under 0.1 µg/mL; on D. immitis Slo-1, 100 to 1000 nM; on C. elegans Slo-1a, under 100 nM; in assay [2], under 0.1 µg/mL; in assay [3] it was over 1 µg/mL.
For `CC(C)c1c(C(=O)NN2CCOc3ccccc32)nc2c(-c3cc(F)cc(F)c3F)cccn12` [Example 7.1, N-(2,3-dihydro-4H-benzo[b][1,4]oxazin-4-yl)-3-isopropyl-8-(2,3,5-trifluoro-phenyl)imidazo[1,2-a]pyridine-2-carboxamide], the concentration giving a half-maximal response (EC50) in assay [1] was 0.1 to 1 µg/mL (≈ 0.214 to 2.14 µM); on D. immitis Slo-1 it was over 1000 nM; at C. elegans Slo-1a it was over 1000 nM; in assay [2], 0.1 to 1 µg/mL (≈ 0.214 to 2.14 µM); in assay [3], over 1 µg/mL.
In the case of `CC(C)c1c(C(=O)NN2CCOc3ccccc32)nc2c(-c3cc(F)cc(F)c3F)nccn12` [Example 8.1, N-(2,3-Dihydro-4H-benzo[b][1,4]oxazin-4-yl)-3-isopropyl-8-(2,3,5-trifluorophenyl)-imidazo[1,2-a]pyrazine-2-carboxamide], the concentration giving a half-maximal response (EC50) is 0.1 to 1 µg/mL (≈ 0.214 to 2.14 µM) in assay [1]; over 1000 nM on D. immitis Slo-1; over 1000 nM at C. elegans Slo-1a; 0.1 to 1 µg/mL (≈ 0.214 to 2.14 µM) in assay [2]; over 1 µg/mL in assay [3].
On to `Cc1cnc2c(C(C)C)c(C(=O)NN3CCOc4ccccc43)nn2c1-c1cc(F)cc(F)c1F` [Example 9.1, N-(2,3-Dihydro-4H-benzo[b][1,4]oxazin-4-yl)-3-isopropyl-6-methyl-7-(2,3,5-trifluorophenyl)-pyrazolo[1,5-a]pyrimidine-2-carboxamide], for which the EC50 was under 0.1 µg/mL in assay [1]; over 1000 nM at D. immitis Slo-1; over 1000 nM on C. elegans Slo-1a; 0.1 to 1 µg/mL (≈ 0.208 to 2.08 µM) in assay [2]; over 1 µg/mL in assay [3].
As to `CC(C)c1c(C(=O)NN2CCOc3ccccc32)cnc2c1cnn2-c1cc(F)cc(F)c1F` [Example 10.1, N-(2,3-Dihydro-4H-benzo[b][1,4]oxazin-4-yl)-4-isopropyl-1-(2,3,5-trifluorophenyl)-1H-pyrazolo[3,4-b]pyridine-5-carboxamide], the 50% effective concentration (EC50) is 0.1 to 1 µg/mL (≈ 0.214 to 2.14 µM) in assay [1]; over 1000 nM at D. immitis Slo-1; 100 to 1000 nM at C. elegans Slo-1a; under 0.1 µg/mL in assay [2]; over 1 µg/mL in assay [3].
On the same counts, the results for `Cc1nn(-c2cc(F)cc(F)c2F)c2ncc(C(=O)NN3CCOc4ccccc43)c(C(C)C)c12` [Example 10.2, N-(2,3-Dihydro-4H-benzo[b][1,4]oxazin-4-yl)-4-isopropyl-3-methyl-1-(2,3,5-trifluorophenyl)-1H-pyrazolo[3,4-b]pyridine-5-carboxamide] are 0.1 to 1 µg/mL (≈ 0.208 to 2.08 µM), over 1000 nM, over 1000 nM, over 1 µg/mL and over 1 µg/mL.
On the same counts, the results for `CC(C)c1c(C(=O)NN2CCOc3ccccc32)cnc2c(-c3cc(F)cc(F)c3F)ncn12` [Example 11.1, N-(2,3-Dihydro-4H-benzo[b][1,4]oxazin-4-yl)-4-isopropyl-8-(2,3,5-trifluoro-phenyl)-imidazo[1,5-a]pyrimidine-3-carboxamide] are 0.1 to 1 µg/mL (≈ 0.214 to 2.14 µM), over 1000 nM, 100 to 1000 nM, under 0.1 µg/mL and over 1 µg/mL.
Turning to `CC(C)n1c(C(=O)NN2CCOc3ccccc32)nc2c(-c3cc(F)cc(F)c3F)nccc21` [Example 12.1, N-(2,3-Dihydro-4H-benzo[b][1,4]oxazin-4-yl)-1-isopropyl-4-(2,3,5-trifluorophenyl)-1H-imidazo[4,5-c]pyridine-2-carboxamide], the EC50 in assay [1] is 0.1 to 1 µg/mL (≈ 0.214 to 2.14 µM); on D. immitis Slo-1 it was over 1000 nM; on C. elegans Slo-1a, over 1000 nM; in assay [2], under 0.1 µg/mL; in assay [3], over 1 µg/mL.
For the molecule `CC(C)n1c(C(=O)NN2CCOc3ccccc32)nc2c(-c3cc(F)cc(F)c3F)cccc21` [Example 13.1, N-(2,3-Dihydro-4H-benzo[b][1,4]oxazin-4-yl)-1-isopropyl-4-(2,3,5-trifluorophenyl)-1H-benzo[d]imidazole-2-carboxamide], the concentration giving a half-maximal response (EC50) was 0.1 to 1 µg/mL (≈ 0.214 to 2.14 µM) in assay [1]; over 1000 nM at D. immitis Slo-1; 100 to 1000 nM at C. elegans Slo-1a; 0.1 to 1 µg/mL (≈ 0.214 to 2.14 µM) in assay [2]; over 1 µg/mL in assay [3].
With `CC(C)c1c(C(=O)NN2CCOc3ccccc32)cnc2c1nnn2-c1cc(F)cc(F)c1F` [Example 14.1, N-(2,3-Dihydro-4H-benzo[b][1,4]oxazin-4-yl)-7-isopropyl-3-(2,3,5-trifluorophenyl)-3H-[1,2,3]triazolo[4,5-b]pyridine-6-carboxamide], the half-maximal effective concentration (EC50) in assay [1] was under 0.1 µg/mL; at D. immitis Slo-1, over 1000 nM; at C. elegans Slo-1a, over 1000 nM; in assay [2] it was over 1 µg/mL; in assay [3], over 1 µg/mL.
Regarding `CC(C)c1c(C(=O)NN2CCOc3ccccc32)ccn2c(-c3c(F)ccc(F)c3F)nnc12` [Example 15.1, N-(2,3-Dihydro-1,4-benzoxazin-4-yl)-8-isopropyl-3-(2,3,6-trifluorophenyl)-[1,2,4] triazolo [4,3-a]pyridine-7-carboxamide], the concentration for a half-maximal effect (EC50) in assay [1] is 0.1 to 1 µg/mL (≈ 0.214 to 2.14 µM); on D. immitis Slo-1 it was over 1000 nM; at C. elegans Slo-1a, over 1000 nM; in assay [2], over 1 µg/mL; in assay [3], over 1 µg/mL.
Consider `CC(C)c1c(C(=O)NN2CCOc3ccccc32)ccc2c1nnn2-c1cc(F)cc(F)c1F` [Example 16.1, N-(2,3-Dihydro-4H-benzo[b][1,4]oxazin-4-yl)-4-isopropyl-1-(2,3,5-trifluorophenyl)-1H-benzo[d][1,2,3]triazole-5-carboxamide], for which the EC50 in assay [1] was over 1 µg/mL; at D. immitis Slo-1, over 1000 nM; on C. elegans Slo-1a, over 1000 nM; in assay [2], over 1 µg/mL; in assay [3], over 1 µg/mL.
Consider `CC(C)c1c(C(=O)NN2CCOc3ccccc32)[nH]c2c(-c3cc(F)cc(F)c3F)cccc12` [Example 17.1, N-(2,3-dihydro-1,4-benzoxazin-4-yl)-3-(1-methylethyl)-7-[2,3,5-tris(fluoranyl)-phenyl]-1H-indole-2-carboxamide], for which the half-maximal effective concentration (EC50) was under 0.1 µg/mL in assay [1]; over 1000 nM on D. immitis Slo-1; over 1000 nM at C. elegans Slo-1a; over 1 µg/mL in assay [2]; over 1 µg/mL in assay [3].
